This is an account of results in patent US11639343B2, “Compounds targeting and degrading BCR-ABL protein and its antitumor application” (ShanghaiTech University, priority 2019, dated 2023).

Usually DC50 stands for the midpoint of the concentration-degradation curve. As a reminder, the IC50 is the point on the concentration scale where inhibition reaches its midpoint.

For one assay, the target named is BCR-ABL protein (Homo sapiens, UniProt P00519). The assay can be described thus: Western blot degradation of BCR-ABL in K562 cells. It counts as cell-based. Further details: Western blot was used to detect the expression of BCR-ABL and c-ABL protein in K562 cells; BCR (fusion partner, P11274); endogenous in cells; host or cells: K562; the other entry of the earlier key: BCR (P11274, Breakpoint cluster region protein). The settings on record: 16 hours; for DC50: 1 nM-10 μM. As to the method: (§1) (1) Cell seed: K562 cells were added to the 24 well plates, with a cell density of 3×10^5/ml and a total volume of 1.5 ml; Five concentration gradients, 1 nm, 10 nm, 100 nm, 1 μM, and 10 μM, were respectively set for PROTAD series compounds and comparative examples compounds (Dasa-6-2-2-6-VHL, Dasa-6-2-6-CRBN). […] After 16 hours of drug treatment, the cells were collected in 1.5 ml ep tube, centrifuged at 3000 rpm for 3 minutes, and then added 30 μL PBS and 30 ul 2×SDS to cell precipitated, lysate Heat at 100° C. for 5 minutes, then place on ice for 5 minutes, centrifuged at 10000 rpm for 5 minutes, and take the supernatant as the total protein extracted. The protein concentration was determined by the Bradford method. After each sample was at the same concentration, bromophenol blue was added as the sample indicator.
(§2) (2) Electrophoresis: the starting voltage of the BioRad electrophoresis instrument was 80V, and as the dye enters the separation gel, the voltage was adjusted to 120V;
(§3) (3) Film transfer: prepare filter paper and nitrocellulose membrane with the corresponding size of the gel, filter paper, and NC film were soaked in transfer electrophoresis buffer.
(§4) DC50 (concentration required to degrade protein by half) were calculated based on the intensity from western blot, and data were analyzed via Prism GraphPad with non-linear regression.
On the technique in general: Immunoblotting shows a protein as a band on a membrane.

A further assay concerns the target c-ABL protein (Homo sapiens, UniProt P00519). In words: Western blot degradation of c-ABL in K562 cells. Further details: Western blot was used to detect the expression of BCR-ABL and c-ABL protein in K562 cells; endogenous in cells; host or cells: K562. To be noted: 16 hours, 1 nM-10 μM. It counts as cell-based. How it is done:
as §1, §2, §3, §4

A further assay concerns K562 (BCR-ABL+) cells. In words: CCK-8 proliferation inhibition, K562 cells.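 Note: Ten-point threefold dilution series starting at 10 µM, absorbance at 450 nm after 2 h with CCK-8, DMSO as negative control.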 It counts as cell-based, human. The settings on record: Homo sapiens, K562, 48 h, CCK-8, 48 hours of drug treatment; read-out: Proliferative inhibitory activity (IC50, nM) K562 (BCR-ABL+).
For the next assay, the system named is U937 (BCR-ABL-) cells. In words: CCK-8 proliferation inhibition, U937 cells.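 Note: Ten-point threefold dilution series, absorbance at 450 nm after 2 h with CCK-8 reagent, DMSO as negative control.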 It counts as cell-based, human. To be noted: Homo sapiens, U-937; CCK-8, 48 hours of drug treatment, highest concentration 10 μM; read-out: Proliferative inhibitory activity (IC50, nM) U937 (BCR-ABL-).
A further assay relates to HEK293 (BCR-ABL-) cells. The assay can be described thus: CCK-8 proliferation inhibition, HEK293 cells.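 Note: Ten-point threefold dilution series starting at 10 µM, CCK-8 absorbance at 450 nm read after 2 h reagent incubation, DMSO-treated cells as negative control.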 To be noted: Homo sapiens, HEK293, 48 h, read-out: Proliferative inhibitory activity (IC50, nM) HEK293 (BCR-ABL-).

Chain of c-ABL protein (P00519 whole entry): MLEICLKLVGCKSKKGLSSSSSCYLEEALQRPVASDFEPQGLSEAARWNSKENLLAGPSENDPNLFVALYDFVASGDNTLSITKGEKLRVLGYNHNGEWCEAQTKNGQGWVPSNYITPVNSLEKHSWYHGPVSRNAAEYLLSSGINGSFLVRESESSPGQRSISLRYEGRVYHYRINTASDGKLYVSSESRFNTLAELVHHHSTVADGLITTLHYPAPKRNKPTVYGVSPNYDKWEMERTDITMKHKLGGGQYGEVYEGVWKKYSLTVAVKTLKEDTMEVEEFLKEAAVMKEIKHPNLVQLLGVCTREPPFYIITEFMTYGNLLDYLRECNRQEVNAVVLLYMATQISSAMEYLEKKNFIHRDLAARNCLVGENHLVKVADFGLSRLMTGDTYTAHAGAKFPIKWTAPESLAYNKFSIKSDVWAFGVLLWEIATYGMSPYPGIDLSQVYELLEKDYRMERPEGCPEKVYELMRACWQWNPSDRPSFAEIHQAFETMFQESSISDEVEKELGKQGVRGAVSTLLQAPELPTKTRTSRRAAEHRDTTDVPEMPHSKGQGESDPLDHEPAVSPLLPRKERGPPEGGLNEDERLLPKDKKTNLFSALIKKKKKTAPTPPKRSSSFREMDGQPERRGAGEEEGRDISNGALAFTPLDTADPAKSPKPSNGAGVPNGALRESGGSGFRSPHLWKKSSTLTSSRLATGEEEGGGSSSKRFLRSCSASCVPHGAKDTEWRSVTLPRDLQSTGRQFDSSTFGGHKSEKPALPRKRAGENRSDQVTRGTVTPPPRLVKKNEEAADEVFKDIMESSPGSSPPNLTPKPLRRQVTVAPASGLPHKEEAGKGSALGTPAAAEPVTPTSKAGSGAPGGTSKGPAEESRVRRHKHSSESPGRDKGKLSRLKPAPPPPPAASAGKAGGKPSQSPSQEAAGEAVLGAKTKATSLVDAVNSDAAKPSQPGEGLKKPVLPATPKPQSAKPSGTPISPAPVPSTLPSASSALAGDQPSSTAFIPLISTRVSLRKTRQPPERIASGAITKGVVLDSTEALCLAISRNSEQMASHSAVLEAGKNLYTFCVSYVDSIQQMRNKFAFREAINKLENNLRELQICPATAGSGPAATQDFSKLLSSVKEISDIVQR
Chain of BCR-ABL protein (P00519 with tags, fused parts or gaps): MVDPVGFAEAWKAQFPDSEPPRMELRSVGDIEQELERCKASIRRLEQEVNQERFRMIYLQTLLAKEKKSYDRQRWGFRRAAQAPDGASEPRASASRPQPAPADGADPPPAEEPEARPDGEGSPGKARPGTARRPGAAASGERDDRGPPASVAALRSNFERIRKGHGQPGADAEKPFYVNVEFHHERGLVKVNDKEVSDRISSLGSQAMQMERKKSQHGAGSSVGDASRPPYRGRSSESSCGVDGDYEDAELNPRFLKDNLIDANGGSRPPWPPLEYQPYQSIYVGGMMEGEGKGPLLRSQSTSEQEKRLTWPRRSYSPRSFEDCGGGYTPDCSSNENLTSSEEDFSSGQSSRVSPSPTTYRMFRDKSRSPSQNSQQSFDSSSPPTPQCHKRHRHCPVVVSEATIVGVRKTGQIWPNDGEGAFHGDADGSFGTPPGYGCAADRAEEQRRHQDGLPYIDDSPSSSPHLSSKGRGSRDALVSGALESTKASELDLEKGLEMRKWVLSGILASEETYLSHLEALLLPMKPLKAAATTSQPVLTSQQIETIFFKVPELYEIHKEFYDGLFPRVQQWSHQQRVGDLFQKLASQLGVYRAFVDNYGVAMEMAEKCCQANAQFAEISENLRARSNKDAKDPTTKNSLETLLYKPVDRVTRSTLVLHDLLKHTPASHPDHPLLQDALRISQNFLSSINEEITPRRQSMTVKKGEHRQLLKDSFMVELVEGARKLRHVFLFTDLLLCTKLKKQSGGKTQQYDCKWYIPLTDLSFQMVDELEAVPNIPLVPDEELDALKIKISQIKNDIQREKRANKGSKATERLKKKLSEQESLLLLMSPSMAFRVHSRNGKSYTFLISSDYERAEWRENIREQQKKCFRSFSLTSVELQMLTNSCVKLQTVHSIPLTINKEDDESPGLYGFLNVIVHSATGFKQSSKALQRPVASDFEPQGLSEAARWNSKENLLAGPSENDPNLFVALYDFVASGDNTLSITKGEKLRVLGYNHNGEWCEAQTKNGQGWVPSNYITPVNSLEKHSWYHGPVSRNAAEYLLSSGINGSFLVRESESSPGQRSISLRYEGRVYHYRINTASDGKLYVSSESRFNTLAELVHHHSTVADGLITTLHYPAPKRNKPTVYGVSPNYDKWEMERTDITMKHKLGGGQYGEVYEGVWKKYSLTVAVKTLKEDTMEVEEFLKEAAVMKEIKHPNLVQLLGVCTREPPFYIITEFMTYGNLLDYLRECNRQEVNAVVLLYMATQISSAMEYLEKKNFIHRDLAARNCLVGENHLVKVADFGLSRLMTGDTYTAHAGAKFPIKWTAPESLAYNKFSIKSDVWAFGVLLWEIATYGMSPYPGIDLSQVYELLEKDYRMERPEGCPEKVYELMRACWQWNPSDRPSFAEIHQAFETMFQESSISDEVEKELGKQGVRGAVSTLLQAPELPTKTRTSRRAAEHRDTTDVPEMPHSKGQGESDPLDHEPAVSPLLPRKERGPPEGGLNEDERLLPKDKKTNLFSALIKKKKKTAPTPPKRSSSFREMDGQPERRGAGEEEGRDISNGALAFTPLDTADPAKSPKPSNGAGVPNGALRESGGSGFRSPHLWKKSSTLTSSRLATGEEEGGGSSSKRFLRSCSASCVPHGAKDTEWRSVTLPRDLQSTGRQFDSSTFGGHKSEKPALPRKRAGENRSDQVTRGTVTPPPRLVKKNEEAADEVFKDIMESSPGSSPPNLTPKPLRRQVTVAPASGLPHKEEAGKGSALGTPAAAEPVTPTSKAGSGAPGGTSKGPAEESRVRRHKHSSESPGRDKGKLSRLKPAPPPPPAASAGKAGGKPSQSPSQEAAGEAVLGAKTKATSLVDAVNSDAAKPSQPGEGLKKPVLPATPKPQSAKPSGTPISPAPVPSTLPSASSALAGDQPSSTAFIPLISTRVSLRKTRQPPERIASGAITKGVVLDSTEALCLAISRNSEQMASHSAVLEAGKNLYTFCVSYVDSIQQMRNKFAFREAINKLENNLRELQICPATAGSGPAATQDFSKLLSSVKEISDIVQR

`Cc1nc(Nc2ncc(C(=O)Nc3c(C)cccc3Cl)s2)cc(N2CCN(CCCCCCOCCOCCOCCCCCC(=O)N[C@H](C(=O)N3C[C@H](O)C[C@H]3C(=O)NCc3ccc(-c4scnc4C)cc3)C(C)(C)C)CC2)n1` [Dasa-6-2-2-6-vhl, N-(2-chloro-6-methylphenyl)-2-((6-(4-((S)-3-((2S,4R)-4-hydroxy-2-((4-(4-methylthiazol-5-yl)benzyl)carbamoyl)pyrrolidine-1-carbonyl)-2,2-dimethyl-5-oxo-11,14,17-trioxa-4-azatricosan-23-yl)piperazin-1-yl)-2-methylpyrimidin-4-yl)amino)thiazole-5-carboxamide, reference compound]: on BCR-ABL protein, the “degradation of BCR-ABL protein (in words)” value is “cannot degrade BCR-ABL protein”.

For `Cc1ccc(NC(=O)c2ccc(CN3CCN(C(=O)CCCCCCC(=O)N[C@H](C(=O)N4C[C@H](O)C[C@H]4C(=O)NCc4ccc(-c5scnc5C)cc4)C(C)(C)C)CC3)cc2)cc1Nc1nccc(-c2cccnc2)n1` [SIAIS074031, (2S,4R)-1-((S)-3,3-dimethyl-2-(8-(4-(4-((4-methyl-3-((4-(pyridin-3-yl)pyrimidin-2-yl)amino)phenyl)carbamoyl)benzyl)piperazin-1-yl)-8-oxooctanamido)butanoyl)-4-hydroxy-N-(4-(4-methylthiazol-5-yl)benzyl)pyrrolidine-2-carboxamide], the DC50 on BCR-ABL protein and at c-ABL protein was 100 to 1000 nM in each case.

As for `Cc1nc(Nc2ncc(C(=O)Nc3c(C)cccc3Cl)s2)cc(N2CCN(C(=O)CCOCCNc3cccc4c3C(=O)N(C3CCC(=O)NC3=O)C4=O)CC2)n1` (centres unmarked) [SIAIS151063, N-(2-chloro-6-methylphenyl)-2-((6-(4-(3-(2-((2-(2,6-dioxopiperidin-3-yl)-1,3-dioxoisoindolin-4-yl)amino)ethoxy)propanoyl)piperazin-1-yl)-2-methylpyrimidin-4-yl)amino)thiazole-5-carboxamide], the IC50 in the assay with K562 (BCR-ABL+) cells is 2.7 nM; in the assay on U937 (BCR-ABL-) cells it was 276 nM; in the assay on HEK293 (BCR-ABL-) cells, 972 nM. For the same molecule, the DC50 at BCR-ABL protein and on c-ABL protein was 1 to 10 nM in each case.

On to `Cc1nc(Nc2ncc(C(=O)Nc3c(C)cccc3Cl)s2)cc(N2CCN(C(=O)CCOCCOCCNc3cccc4c3C(=O)N(C3CCC(=O)NC3=O)C4=O)CC2)n1` (centres unmarked) [SIAIS151064, N-(2-chloro-6-methylphenyl)-2-((6-(4-(3-(2-(2-((2-(2,6-dioxopiperidin-3-yl)-1,3-dioxoisoindolin-4-yl)amino)ethoxy)ethoxy)propanoyl)piperazin-1-yl)-2-methylpyrimidin-4-yl)amino)thiazole-5-carboxamide], for which the values for the IC50 in the assay on K562 (BCR-ABL+) cells, with U937 (BCR-ABL-) cells and in the assay on HEK293 (BCR-ABL-) cells were 8.05 nM, > 10000 nM and > 10000 nM, respectively. Also, the DC50 on BCR-ABL protein fell in the range of 1 to 10 nM; at c-ABL protein it was 10 to 100 nM.

Consider `Cc1nc(Nc2ncc(C(=O)Nc3c(C)cccc3Cl)s2)cc(N2CCN(C(=O)CCOCCOCCOCCNc3cccc4c3C(=O)N(C3CCC(=O)NC3=O)C4=O)CC2)n1` (centres unmarked) [SIAIS151067, N-(2-chloro-6-methylphenyl)-2-((6-(4-(3-(2-(2-(2-((2-(2,6-dioxopiperidin-3-yl)-1,3-dioxoisoindolin-4-yl)amino)ethoxy)ethoxy)ethoxy)propanoyl)piperazin-1-yl)-2-methylpyrimidin-4-yl)amino)thiazole-5-carboxamide], for which the IC50 with K562 (BCR-ABL+) cells is 14.8 nM; with U937 (BCR-ABL-) cells, > 10000 nM; with HEK293 (BCR-ABL-) cells, > 10000 nM. Also, the DC50 at BCR-ABL protein was 1 to 10 nM; on c-ABL protein it was 10 to 100 nM.

With `Cc1nc(Nc2ncc(C(=O)Nc3c(C)cccc3Cl)s2)cc(N2CCN(C(=O)CCOCCOCCOCCOCCNc3cccc4c3C(=O)N(C3CCC(=O)NC3=O)C4=O)CC2)n1` (centres unmarked) [SIAIS151068, N-(2-chloro-6-methylphenyl)-2-((6-(4-(1-((2-(2,6-dioxopiperidin-3-yl)-1,3-dioxoisoindolin-4-yl)amino)-3,6,9,12-tetraoxapentadecan-15-oyl)piperazin-1-yl)-2-methylpyrimidin-4-yl)amino)thiazole-5-carboxamide], the IC50 in the assay on K562 (BCR-ABL+) cells was 40.4 nM; in the assay on U937 (BCR-ABL-) cells it was > 10000 nM; with HEK293 (BCR-ABL-) cells it was > 10000 nM. Besides, the figures for the DC50 at BCR-ABL protein and at c-ABL protein were 1 to 10 nM and 10 to 100 nM, respectively.

Regarding `Cc1nc(Nc2ncc(C(=O)Nc3c(C)cccc3Cl)s2)cc(N2CCN(C(=O)CCOCCOCCOCCOCCOCCNc3cccc4c3C(=O)N(C3CCC(=O)NC3=O)C4=O)CC2)n1` (centres unmarked) [SIAIS151069, N-(2-chloro-6-methylphenyl)-2-((6-(4-(1-((2-(2,6-dioxopiperidin-3-yl)-1,3-dioxoisoindolin-4-yl)amino)-3,6,9,12,15-pentaoxaoctadecan-18-oyl)piperazin-1-yl)-2-methylpyrimidin-4-yl)amino)thiazole-5-carboxamide], the IC50 was 31.9 nM in the assay with K562 (BCR-ABL+) cells, > 10000 nM in the assay on U937 (BCR-ABL-) cells and > 10000 nM with HEK293 (BCR-ABL-) cells. The figures for the DC50 on BCR-ABL protein and at c-ABL protein were 1 to 10 nM and 10 to 100 nM, respectively.

With `Cc1nc(Nc2ncc(C(=O)Nc3c(C)cccc3Cl)s2)cc(N2CCN(C(=O)CCCNc3cccc4c3C(=O)N(C3CCC(=O)NC3=O)C4=O)CC2)n1` (centres unmarked) [SIAIS151070, N-(2-chloro-6-methylphenyl)-2-((6-(4-(4-((2-(2,6-dioxopiperidin-3-yl)-1,3-dioxoisoindolin-4-yl)amino)butanoyl)piperazin-1-yl)-2-methylpyrimidin-4-yl)amino)thiazole-5-carboxamide], the IC50 is 5.5 nM with K562 (BCR-ABL+) cells, > 10000 nM in the assay on U937 (BCR-ABL-) cells and > 10000 nM with HEK293 (BCR-ABL-) cells. The DC50 on BCR-ABL protein and on c-ABL protein was 1 to 10 nM throughout.

Take `Cc1nc(Nc2ncc(C(=O)Nc3c(C)cccc3Cl)s2)cc(N2CCN(C(=O)CCCCNc3cccc4c3C(=O)N(C3CCC(=O)NC3=O)C4=O)CC2)n1` (centres unmarked) [SIAIS151071, N-(2-chloro-6-methylphenyl)-2-((6-(4-(5-((2-(2,6-dioxopiperidin-3-yl)-1,3-dioxoisoindolin-4-yl)amino)pentanoyl)piperazin-1-yl)-2-methylpyrimidin-4-yl)amino)thiazole-5-carboxamide]: the figures for the IC50 with K562 (BCR-ABL+) cells, with U937 (BCR-ABL-) cells and in the assay on HEK293 (BCR-ABL-) cells were 0.55 nM, > 10000 nM and > 10000 nM, respectively. Further, the DC50 is < 1 nM on BCR-ABL protein and 1 to 10 nM on c-ABL protein.

As to `Cc1nc(Nc2ncc(C(=O)Nc3c(C)cccc3Cl)s2)cc(N2CCN(C(=O)CNc3cccc4c3C(=O)N(C3CCC(=O)NC3=O)C4=O)CC2)n1` (centres unmarked) [SIAIS151072, N-(2-chloro-6-methylphenyl)-2-((6-(4-((2-(2,6-dioxopiperidin-3-yl)-1,3-dioxoisoindolin-4-yl)glycyl)piperazin-1-yl)-2-methylpyrimidin-4-yl)amino)thiazole-5-carboxamide], the IC50 in the assay with K562 (BCR-ABL+) cells was 1.22 nM; with U937 (BCR-ABL-) cells, > 10000 nM; with HEK293 (BCR-ABL-) cells, > 10000 nM. The DC50 was < 1 nM on BCR-ABL protein and 1 to 10 nM at c-ABL protein.

Regarding `COc1cc(Nc2c(C#N)cnc3cc(OCCCN4CCN(C(=O)CNc5cccc6c5C(=O)N(C5CCC(=O)NC5=O)C6=O)CC4)c(OC)cc23)c(Cl)cc1Cl` (centres unmarked) [SIAIS151164, 4-((2,4-dichloro-5-methoxyphenyl)amino)-7-(3-(4-((2-(2,6-dioxopiperidin-3-yl)-1,3-dioxoisoindolin-4-yl)glycyl)piperazin-1-yl)propoxy)-6-methoxyquinoline-3-carbonitrile], the DC50 on BCR-ABL protein and at c-ABL protein was 10 to 100 nM each time.

Regarding `Cc1ccc(NC(=O)c2ccc(CN3CCN(C(=O)CCOCCOCCOCCOCCC(=O)N[C@H](C(=O)N4C[C@H](O)C[C@H]4C(=O)NCc4ccc(-c5scnc5C)cc4)C(C)(C)C)CC3)cc2)cc1Nc1nccc(-c2cccnc2)n1` [SIAIS1197039, (2S,4R)-1-((S)-2-(tert-butyl)-19-(4-(4-((4-methyl-3-((4-(pyridin-3-yl)pyrimidin-2-yl)amino)phenyl)carbamoyl)benzyl)piperazin-1-yl)-4,19-dioxo-7,10,13,16-tetraoxa-3-azanonadecanoyl)-4-hydroxy-N-(4-(4-methylthiazol-5-yl)benzyl)pyrrolidine-2-carboxamide], the DC50 on BCR-ABL protein and on c-ABL protein was 1000 nM throughout.
